According to US7875647B2, “Heteroaryl-pyrazole derivatives as cannabinoid CB1 receptor antagonists” (Green Cross Corporation, priority 2006, dated 2011):
Read-outs that look alike come from different tables or passages of the source.

Molecular target: T1, Cannabinoid-1 receptor (CB1R) (Rattus norvegicus, UniProt P20272)
T1 construct: The tissue obtained from the brain of SD rats was homogenized; from tissue; host or cells: brain of SD rats (membrane pellet of the homogenate)
Test: Cannabinoid-1 receptor (CB1R) binding affinity assay ([3H]CP-55940, rat CB-1 receptor binding protocol)
Settings: brain tissue of SD rats, [3H]CP-55940, 30° C. 60 min

T1 sequence (P20272 whole entry): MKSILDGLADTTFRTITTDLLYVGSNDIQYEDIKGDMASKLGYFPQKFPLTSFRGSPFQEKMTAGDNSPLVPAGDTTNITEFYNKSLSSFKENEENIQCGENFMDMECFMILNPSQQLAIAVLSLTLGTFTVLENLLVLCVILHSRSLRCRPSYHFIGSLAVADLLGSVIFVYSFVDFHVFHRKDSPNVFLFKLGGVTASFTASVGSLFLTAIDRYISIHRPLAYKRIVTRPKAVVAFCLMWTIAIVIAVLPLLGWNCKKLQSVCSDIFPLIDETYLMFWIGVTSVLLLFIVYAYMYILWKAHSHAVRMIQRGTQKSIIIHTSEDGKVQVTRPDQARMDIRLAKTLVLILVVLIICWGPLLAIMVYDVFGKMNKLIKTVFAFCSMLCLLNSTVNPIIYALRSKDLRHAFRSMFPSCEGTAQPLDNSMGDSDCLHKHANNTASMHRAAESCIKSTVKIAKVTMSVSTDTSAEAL

Compound	IC50 (IC50(nM))	IC50 (read-out: IC50)
Cc1c(-c2nnc(C3CC=CC3)s2)nn(-c2ccc(Cl)cc2Cl)c1-c1ccc(Cl)cc1 [Example 384, 2-(5-(4-chlorophenyl)-1-(2,4-dichlorophenyl)-4-methyl-1H-pyrazol-3-yl)-5-(cyclopent-3-enyl)-1,3,4-thiadiazole]	20.2 nM	
Cc1c(-c2nnc(C(C)Cc3ccccc3)s2)nn(-c2ccc(Cl)cc2Cl)c1-c1ccc(Cl)cc1 (stereo not shown) [Example 385, 2-(5-(4-chlorophenyl)-1-(2,4-dichlorophenyl)-4-methyl-1H-pyrazol-3-yl)-5-(1-phenylpropan-2-yl)-1,3,4-thiadiazole]		33.6 nM
CCc1c(-c2nnc(CC3CCCCC3)s2)nn(-c2ccc(Cl)cc2Cl)c1-c1ccc(Br)cc1 [Example 386, 2-(5-(4-bromophenyl)-1-(2,4-dichlorophenyl)-4-ethyl-1H-pyrazol-3-yl)-5-(cyclohexylmethyl)-1,3,4-thiadiazole]		13.2 nM
Cc1c(-c2nnc(CC3CCCCC3)s2)nn(-c2ccc(Cl)cc2Cl)c1-c1ccc(Br)cc1 [Example 387, 2-(5-(4-bromophenyl)-1-(2,4-dichlorophenyl)-4-methyl-1H-pyrazol-3-yl)-5-(cyclohexylmethyl)-1,3,4-thiadiazole]		24.3 nM
CCCCC(C)c1nnc(-c2nn(-c3ccc(Cl)cc3Cl)c(-c3ccc(Br)cc3)c2CC)s1 (stereo not shown) [Example 388, 2-(5-(4-bromophenyl)-1-(2,4-dichlorophenyl)-4-ethyl-1H-pyrazol-3-yl)-5-(hexan-2-yl)-1,3,4-thiadiazole]		7.01 nM
CCc1c(-c2nnc(C(C)(C)C)s2)nn(-c2ccc(Cl)cc2Cl)c1-c1ccc(Cl)cc1 [Example 389, 2-tert-butyl-5-(5-(4-chlorophenyl)-1-(2,4-dichlorophenyl)-4-ethyl-1H-pyrazol-3-yl)-1,3,4-thiadiazole]		11.1 nM
CCc1c(-c2nnc(C3CCCCC3)s2)nn(-c2ccc(Cl)cc2Cl)c1-c1ccc(Cl)cc1 [Example 390, 2-(5-(4-chlorophenyl)-1-(2,4-dichlorophenyl)-4-ethyl-1H-pyrazol-3-yl)-5-cyclohexyl-1,3,4-thiadiazole]		18.2 nM
Cc1c(-c2nnc(C(C)C3CCCC3)s2)nn(-c2ccc(Cl)cc2Cl)c1-c1ccc(Cl)cc1 (stereo not shown) [Example 391, 2-(5-(4-chlorophenyl)-1-(2,4-dichlorophenyl)-4-methyl-1H-pyrazol-3-yl)-5-(1-cyclopentylethyl)-1,3,4-thiadiazole]		14.3 nM
Cc1c(-c2nnc(C(C)C3CCCCC3)s2)nn(-c2ccc(Cl)cc2Cl)c1-c1ccc(Cl)cc1 (stereo not shown) [Example 392, 2-(5-(4-chlorophenyl)-1-(2,4-dichlorophenyl)-4-methyl-1H-pyrazol-3-yl)-5-(1-cyclohexylethyl)-1,3,4-thiadiazole]		46.7 nM
Cc1c(-c2nnc(C(C)(C)C3CCCC3)s2)nn(-c2ccc(Cl)cc2Cl)c1-c1ccc(Cl)cc1 [Example 393, 2-(5-(4-chlorophenyl)-1-(2,4-dichlorophenyl)-4-methyl-1H-pyrazol-3-yl)-5-(2-cyclopentylpropan-2-yl)-1,3,4-thiadiazole]		19.5 nM
Cc1c(-c2nnc(C(C)(C)C3CCCCC3)s2)nn(-c2ccc(Cl)cc2Cl)c1-c1ccc(Cl)cc1 [Example 394, 2-(5-(4-chlorophenyl)-1-(2,4-dichlorophenyl)-4-methyl-1H-pyrazol-3-yl)-5-(2-cyclohexylpropan-2-yl)-1,3,4-thiadiazole]		13.9 nM
CCc1c(-c2nnc(C3CCC3)s2)nn(-c2ccc(Cl)cc2Cl)c1-c1ccc(Cl)cc1 [Example 395, 2-(5-(4-chlorophenyl)-1-(2,4-dichlorophenyl)-4-ethyl-1H-pyrazol-3-yl)-5-cyclobutyl-1,3,4-thiadiazole]		21.8 nM
CCc1c(-c2nnc(C3CCCC3)s2)nn(-c2ccc(Cl)cc2Cl)c1-c1ccc(Cl)cc1 [Example 396, 2-(5-(4-chlorophenyl)-1-(2,4-dichlorophenyl)-4-ethyl-1H-pyrazol-3-yl)-5-cyclopentyl-1,3,4-thiadiazole]		9.94 nM
CCc1c(-c2nnc(C3CCCCCC3)s2)nn(-c2ccc(Cl)cc2Cl)c1-c1ccc(Cl)cc1 [Example 397, 2-(5-(4-chlorophenyl)-1-(2,4-dichlorophenyl)-4-ethyl-1H-pyrazol-3-yl)-5-cycloheptyl-1,3,4-thiadiazole]		9.42 nM
CCc1c(-c2nnc(C(C)CC)s2)nn(-c2ccc(Cl)cc2Cl)c1-c1ccc(Cl)cc1 (stereo not shown) [Example 398, 2-sec-butyl-5-(5-(4-chlorophenyl)-1-(2,4-dichlorophenyl)-4-ethyl-1H-pyrazol-3-yl)-1,3,4-thiadiazole]		7.99 nM
CCc1c(-c2nnc(C(C)CC)s2)nn(-c2ccc(Cl)cc2Cl)c1-c1ccc(Br)cc1 (stereo not shown) [Example 399, 2-(5-(4-bromophenyl)-1-(2,4-dichlorophenyl)-4-ethyl-1H-pyrazol-3-yl)-5-sec-butyl-1,3,4-thiadiazole]		7.63 nM
CCc1c(-c2nnc(C3CCCCCC3)s2)nn(-c2ccc(Cl)cc2Cl)c1-c1ccc(Br)cc1 [Example 400, 2-(5-(4-bromophenyl)-1-(2,4-dichlorophenyl)-4-ethyl-1H-pyrazol-3-yl)-5-cycloheptyl-1,3,4-thiadiazole]		5.26 nM

Compound	IC50 (IC50(nM))	IC50 (read-out: IC50)
Cc1c(-c2nnc(C(C)(C)c3ccccc3)s2)nn(-c2ccc(Cl)cc2Cl)c1-c1ccc(Cl)cc1 [Example 401, 2-(5-(4-chlorophenyl)-1-(2,4-dichlorophenyl)-4-methyl-1H-pyrazol-3-yl)-5-(2-phenylpropan-2-yl)-1,3,4-thiadiazole]		6.9 nM
Cc1c(-c2nnc(C(C)(C)c3ccc(Cl)cc3)s2)nn(-c2ccc(Cl)cc2Cl)c1-c1ccc(Cl)cc1 [Example 402, 2-(5-(4-chlorophenyl)-1-(2,4-dichlorophenyl)-4-methyl-1H-pyrazol-3-yl)-5-(2-(4-chlorophenyl)propan-2-yl)-1,3,4-thiadiazole]		5.34 nM
CCC(C)c1nnc(-c2nn(-c3ccc(Cl)cc3Cl)c(-c3ccc(Br)cc3)c2C)s1 (stereo not shown) [Example 403, 2-(5-(4-bromophenyl)-1-(2,4-dichlorophenyl)-4-methyl-1H-pyrazol-3-yl)-5-sec-butyl-1,3,4-thiadiazole]		10.7 nM
CCc1c(-c2nnc(C(C)(C)c3ccccc3)s2)nn(-c2ccc(Cl)cc2Cl)c1-c1ccc(Br)cc1 [Example 404, 2-(5-(4-bromophenyl)-1-(2,4-dichlorophenyl)-4-ethyl-1H-pyrazol-3-yl)-5-(2-phenylpropan-2-yl)-1,3,4-thiadiazole]		5.15 nM
Cc1c(-c2nnc(C(C)(C)C)s2)nn(-c2ccccc2Cl)c1-c1ccc(Cl)cc1 [Example 405, 2-tert-butyl-5-(1-(2-chlorophenyl)-5-(4-chlorophenyl)-4-methyl-1H-pyrazol-3-yl)-1,3,4-thiadiazole]		14.7 nM
CCCCC(C)(C)c1nnc(-c2nn(-c3ccc(Cl)cc3Cl)c(-c3ccc(Cl)cc3)c2C)s1 [Example 406, 2-(5-(4-chlorophenyl)-1-(2,4-dichlorophenyl)-4-methyl-1H-pyrazol-3-yl)-5-(2-methylhexan-2-yl)-1,3,4-thiadiazole]		27.4 nM
CCC(C)c1nnc(-c2nn(-c3ccccc3Cl)c(-c3ccc(Cl)cc3)c2C)s1 (stereo not shown) [Example 407, 2-sec-butyl-5-(1-(2-chlorophenyl)-5-(4-chlorophenyl)-4-methyl-1H-pyrazol-3-yl)-1,3,4-thiadiazole]		18.4 nM
Cc1c(-c2nnc(C3CCCCC3)s2)nn(-c2ccccc2Cl)c1-c1ccc(Cl)cc1 [Example 408, 2-(1-(2-chlorophenyl)-5-(4-chlorophenyl)-4-methyl-1H-pyrazol-3-yl)-5-cyclohexyl-1,3,4-thiadiazole]		61 nM
Cc1c(-c2nnc(C3CCC3)s2)nn(-c2ccccc2Cl)c1-c1ccc(Cl)cc1 [Example 409, 2-(1-(2-chlorophenyl)-5-(4-chlorophenyl)-4-methyl-1H-pyrazol-3-yl)-5-cyclobutyl-1,3,4-thiadiazole]		58.1 nM
CCC(C)(C)c1nnc(-c2nn(-c3ccccc3Cl)c(-c3ccc(Cl)cc3)c2C)s1 [Example 410, 2-(1-(2-chlorophenyl)-5-(4-chlorophenyl)-4-methyl-1H-pyrazol-3-yl)-5-tert-pentyl-1,3,4-thiadiazole]		11.7 nM
CCCCC(C)c1nnc(-c2nn(-c3ccccc3Cl)c(-c3ccc(Cl)cc3)c2C)s1 (stereo not shown) [Example 411, 2-(1-(2-chlorophenyl)-5-(4-chlorophenyl)-4-methyl-1H-pyrazol-3-yl)-5-(hexan-2-yl)-1,3,4-thiadiazole]	13.5 nM	
CCCC(C)c1nnc(-c2nn(-c3ccc(Cl)cc3Cl)c(-c3ccc(Cl)cc3)c2CC)s1 (stereo not shown) [Example 412, 2-(5-(4-chlorophenyl)-1-(2,4-dichlorophenyl)-4-ethyl-1H-pyrazol-3-yl)-5-(pentan-2-yl)-1,3,4-thiadiazole]	11 nM	
CCCC(C)c1nnc(-c2nn(-c3ccc(Cl)cc3Cl)c(-c3ccc(Br)cc3)c2C)s1 (stereo not shown) [Example 413, 2-(5-(4-bromophenyl)-1-(2,4-dichlorophenyl)-4-methyl-1H-pyrazol-3-yl)-5-(pentan-2-yl)-1,3,4-thiadiazole]		14.6 nM
CCCC(C)c1nnc(-c2nn(-c3ccc(Cl)cc3Cl)c(-c3ccc(Br)cc3)c2CC)s1 (stereo not shown) [Example 414, 2-(5-(4-bromophenyl)-1-(2,4-dichlorophenyl)-4-ethyl-1H-pyrazol-3-yl)-5-(pentan-2-yl)-1,3,4-thiadiazole]		9.18 nM
CCCCC(C)(C)c1nnc(-c2nn(-c3ccccc3Cl)c(-c3ccc(Cl)cc3)c2C)s1 [Example 415, 2-(1-(2-chlorophenyl)-5-(4-chlorophenyl)-4-methyl-1H-pyrazol-3-yl)-5-(2-methylhexan-2-yl)-1,3,4-thiadiazole]		8.02 nM
Cc1c(-c2nnc(C(C)(C)c3ccccc3)s2)nn(-c2ccccc2Cl)c1-c1ccc(Cl)cc1 [Example 416, 2-(1-(2-chlorophenyl)-5-(4-chlorophenyl)-4-methyl-1H-pyrazol-3-yl)-5-(2-phenylpropan-2-yl)-1,3,4-thiadiazole]		9.27 nM
CCC(C)(C)c1nnc(-c2nn(-c3ccc(Cl)cc3)c(-c3ccc(Br)cc3)c2C)s1 [Example 417, 2-(5-(4-bromophenyl)-1-(4-chlorophenyl)-4-methyl-1H-pyrazol-3-yl)-5-tert-pentyl-1,3,4-thiadiazole]		134 nM
